Reference: PubChem BioAssay (NCI)
Values joined by “and” are separate entries in the source; they are usually repeats but may differ in a detail not shown here. Equal entries are not always repeated.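 Compound exposure: 48 hours, 5 concentrations, 96-well plates. The concentration for 50% growth inhibition is given as GI50. The concentration for full growth arrest is given as TGI.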

Legend:
Assay in all cases: NCI tumour cell line growth inhibition, 48 h
[1] = tested on: SN12C renal
[2] = tested on: SNB-19 CNS
[3] = tested on: HL-60(TB) leukemia
[4] = tested on: MDA-MB-435
[5] = tested on: RPMI-8226 leukemia
[6] = tested on: NCI-H522 lung
[7] = tested on: UO-31 renal
[8] = tested on: COLO 205 colon
[9] = tested on: U251 CNS
[10] = tested on: MDA-MB-231 breast
[11] = tested on: NCI-H226 lung
[12] = tested on: A498 renal
[13] = tested on: MDA-N
[14] = tested on: SK-MEL-5 melanoma
[15] = tested on: LOX IMVI melanoma

Row | Compound | TGI [1] | TGI [2] [µM] | TGI [3] | TGI [4] [µM] | TGI [5] | TGI [6] [µM] | TGI [7] | TGI [8] | TGI [9] [µM] | TGI [10] | TGI [11] [µM] | TGI [12] | TGI [13] | TGI [14] [µM] | TGI [15] [µM] | GI50 [2] | GI50 [5] | GI50 [14]
1 | O=C(NO)c1cccc(OCc2ccc(Br)cc2)c1 | 12.8 µM | > 46.4 | 21.9 µM | 38.7 | 24.3 µM | 16.2 | 14.4 µM | 27.4 µM | > 53.8 | 86.3 µM | 27.6 | 32.2 µM | 27.5 µM | > 27.2 | > 34.8 | – | – | –
2 | COC(=O)c1cc(Br)c(C(=O)C(Cl)(Cl)Cl)[nH]1 | > 100 µM | > 100 | > 100 µM | > 100 | > 100 µM | > 100 | > 100 µM | > 100 µM | > 100 | > 100 µM | > 100 | > 100 µM | > 100 µM | > 100 | > 100 | – | – | –
3 | CCOC(=O)c1sc2nc(SC)nc(Nc3ccc4c(c3)OCCCO4)c2c1N | > 100 µM | > 100 | > 100 µM | > 100 | > 100 µM | 37.2 | > 100 µM | > 100 µM | > 100 | > 100 µM | > 100 | > 100 µM | > 100 µM | 18.7 | > 100 | – | – | –
4 | CC(=O)N1NC(c2ccccc2)=CC(=O)/C1=C/C(=O)c1ccccc1 | > 100 µM | > 100 | 76.3 µM | 43.1 | > 100 µM | 57.2 | > 100 µM | > 100 µM | > 100 | > 100 µM | > 100 | > 100 µM | > 100 µM | > 100 | > 100 | – | – | –
5 | CC(=O)OCc1nc(C#N)c(N)o1 | > 100 µM | > 100 | > 100 µM | > 100 | > 100 µM | > 100 | > 100 µM | > 100 µM | > 100 | > 100 µM | > 100 | > 100 µM | > 100 µM | > 100 | > 100 | – | – | –
6 | O=C(OCc1ccccc1)N1CCNCCNCC1 | > 100 µM | > 100 | > 100 µM | > 100 | > 100 µM | > 100 | > 100 µM | > 100 µM | > 100 | > 100 µM | > 100 | > 100 µM | > 100 µM | > 100 | > 100 | – | – | –
7 | CCCCCCCCCCCCCCCCOP(=O)(O)OP(=O)(O)OCC1OC(n2ccc(N)nc2=O)CC1O (stereo not drawn) | > 100 µM | > 100 | > 100 µM | > 100 | > 100 µM | > 100 | > 100 µM | > 100 µM | > 100 | > 100 µM | > 100 | > 100 µM | > 100 µM | > 100 | > 100 | – | – | –
8 | CC(C)=CCNc1ncnc2c1ncn2CCC(=O)OC(C)(C)C | > 100 µM | > 100 | > 100 µM | > 100 | > 100 µM | > 100 | > 100 µM | > 100 µM | > 100 | > 100 µM | > 100 | > 100 µM | > 100 µM | 70 | > 100 | – | – | –
9 | CC1OC(OC2C(OC(=O)[C@]34CCC(C)(C)C[C@H]3C3=CC[C@@H]5[C@@]6(C)CC[C@H](OC7OC(C(=O)O)C(O)C(O)C7O)C(C)(C)[C@@H]6CC[C@@]5(C)[C@]3(C)CC4)OCC(O)C2O)C(O)C(O)C1OC1OCC(O)C(O)C1O (stereo partly drawn) | 50.5 µM and 40.5 µM | > 100 | 73.5 µM and 45.8 µM | 34.8 | > 100 µM and 71.5 µM | > 100 | 39.1 µM and 34.8 µM | 31.2 µM and 30.6 µM | > 100 | 60.4 µM and 35.4 µM | > 100 | 33.2 µM and 35.7 µM | 37.8 µM and 36.2 µM | > 100 | > 100 | > 100 µM and 47.5 µM | 54.5 µM and 25.6 µM | > 100 µM and 28.3 µM
10 | Cc1[nH]c2c(C)ccc(C)c2c1CC(=O)O | > 100 µM | > 100 | 23.7 µM | > 100 | 66.8 µM | 62.1 | > 100 µM | > 100 µM | > 100 | 76.3 µM | > 100 | > 100 µM | > 100 µM | > 100 | > 100 | – | – | –
11 | Cc1ccc2c(c1)C(=O)/C(=C1/CCc3ccc(C)cc31)C2 | > 100 µM | > 100 | > 100 µM | > 100 | > 100 µM | > 100 | > 100 µM | > 100 µM | > 100 | > 100 µM | > 100 | > 100 µM | > 100 µM | > 100 | > 100 | – | – | –
12 | COc1ccc(NC(=O)C(=O)C(CC2C(=O)NC(=S)NC2=O)C(=O)c2ccc3ccccc3c2)c([N+](=O)[O-])c1 (stereo not drawn) | > 100 µM | > 100 | > 100 µM | > 100 | > 100 µM | > 100 | > 100 µM | > 100 µM | > 100 | > 100 µM | > 100 | > 100 µM | > 100 µM | > 100 | > 100 | – | – | –
13 | CC(=O)C1(c2ccccc2)CCN(Cn2sc3nc(C)cc(C)c3c2=O)CC1 | 49.8 µM | > 100 | 52.5 µM | 59.8 | > 100 µM | 29 | 31.8 µM | 33.8 µM | > 100 | > 100 µM | > 100 | > 100 µM | 41 µM | > 100 | 57.8 | – | – | –
14 | CCOC(=O)C(NNS(=O)(=O)c1ccc(C)cc1)S(=O)(=O)C(F)(F)C(F)(F)C(F)(F)C(F)(F)F (stereo not drawn) | > 100 µM | > 100 | > 100 µM | > 100 | > 100 µM | > 100 | > 100 µM | > 100 µM | > 100 | > 100 µM | > 100 | > 100 µM | > 100 µM | > 100 | > 100 | – | – | –
15 | Cc1cc(C)c2c(=O)cc(-c3ccc(Cl)cc3)[nH]c2n1 | > 100 µM | > 100 | > 83 µM | 27.6 | > 100 µM | > 100 | > 93.9 µM | > 55.6 µM | > 100 | > 51.8 µM | > 100 | > 100 µM | 25 µM | > 74.2 | > 100 | – | – | –
16 | CCCCCCCC/C=C\CCCCCCCCNc1ccn(C2OC(COP(=O)(O)OC3CC(n4cc(F)c(=O)[nH]c4=O)OC3CO)C(O)C2O)c(=O)n1 (stereo not drawn) | > 100 µM | > 100 | 45.7 µM | > 100 | > 100 µM | > 100 | > 100 µM | > 100 µM | > 100 | > 100 µM | > 100 | > 53.2 µM | > 100 µM | > 100 | > 37.2 | – | – | –
